In brackets after ≈: the same amount, converted by molar mass. Activity calls are given as the source filed them. The rule behind the calls is not given here.
Key:
Staphylococcus aureus [1] = experiment: Antimicrobial activity against methicillin-susceptible Staphylococcus aureus ATCC 29213 after 16 hrs by broth microdilution method; assay type: functional; conditions: ATCC 29213, 16 h
Staphylococcus aureus [2] = experiment: Antimicrobial activity against methicillin-resistant Staphylococcus aureus ATCC BAA-44 after 16 hrs by broth microdilution method; assay type: functional; conditions: ATCC BAA-44, 16 h
Staphylococcus aureus [3] = experiment: Antimicrobial activity against methicillin-resistant Staphylococcus aureus ATCC 33591 after 16 hrs by broth microdilution method; assay type: functional; conditions: ATCC 33591, 16 h
Staphylococcus aureus [4] = experiment: Antimicrobial activity against methicillin-resistant Staphylococcus aureus ATCC 43300 after 16 hrs by broth microdilution method; assay type: functional; conditions: ATCC 43300, 16 h
Staphylococcus aureus [5] = experiment: Antimicrobial activity against methicillin-resistant Staphylococcus aureus ATCC 700789 after 16 hrs by broth microdilution method; assay type: functional; conditions: ATCC 700789, 16 h
Staphylococcus aureus [6] = experiment: Antimicrobial activity against methicillin-resistant Staphylococcus aureus ATCC BAA-811 after 16 hrs by broth microdilution method; assay type: functional; conditions: ATCC BAA-811, 16 h
Staphylococcus aureus [7] = experiment: Antimicrobial activity against methicillin-resistant Staphylococcus aureus ATCC BAA-1556 after 16 hrs by broth microdilution method; assay type: functional; conditions: ATCC BAA-1556, 16 h
Staphylococcus aureus [8] = experiment: Antimicrobial activity against methicillin-resistant Staphylococcus aureus ATCC BAA-1685 after 16 hrs by broth microdilution method; assay type: functional; conditions: ATCC BAA-1685, 16 h
Staphylococcus aureus [9] = experiment: Antimicrobial activity against methicillin-resistant Staphylococcus aureus ATCC BAA-1753 after 16 hrs by broth microdilution method; assay type: functional; conditions: ATCC BAA-1753, 16 h
Acinetobacter baumannii = experiment: Antimicrobial activity against multidrug-resistant Acinetobacter baumannii ATCC BAA-1605 after 16 hrs by broth microdilution method; assay type: functional; conditions: ATCC BAA-1605, 16 h
Pseudomonas aeruginosa = experiment: Antimicrobial activity against Pseudomonas aeruginosa PA14 after 16 hrs by broth microdilution method; assay type: functional; conditions: PA14, 16 h
Staphylococcus aureus [10] = experiment: Antimicrobial activity against methicillin-resistant Staphylococcus aureus ATCC 43300 assessed as inhibition of biofilm formation after 24 hrs by crystal violet staining-based microscopy; assay type: functional, organism-based; conditions: ATCC 43300, 24 h
Staphylococcus aureus [11] = experiment: Antimicrobial activity against methicillin-resistant Staphylococcus aureus ATCC BAA-44 assessed as inhibition of biofilm formation after 24 hrs by crystal violet staining-based microscopy; assay type: functional, organism-based; conditions: ATCC BAA-44, 24 h
Staphylococcus aureus [12] = experiment: Antibiofilm activity against methicillin-resistant Staphylococcus aureus ATCC 43300 assessed as biofilm dispersal at 20 uM after 24 hrs by crystal violet staining-based microscopy; assay type: functional, organism-based
Staphylococcus aureus [13] = experiment: Toxicity in methicillin-resistant Staphylococcus aureus ATCC 43300 assessed as inhibition of planktonic cell growth at IC50 after 2 to 24 hrs by spectrophotometry; assay type: organism-based
Staphylococcus aureus [14] = experiment: Toxicity in methicillin-resistant Staphylococcus aureus ATCC BAA-44 assessed as inhibition of planktonic cell growth at IC50 after 2 to 24 hrs by spectrophotometry; assay type: organism-based

SMILES	MIC (Staphylococcus aureus [1])	MIC (Staphylococcus aureus [2])	MIC (Staphylococcus aureus [3])	MIC (Staphylococcus aureus [4])	MIC (Staphylococcus aureus [5])	MIC (Staphylococcus aureus [6])	MIC (Staphylococcus aureus [7])	MIC (Staphylococcus aureus [8])	MIC (Staphylococcus aureus [9])	MIC (Acinetobacter baumannii)	MIC (Pseudomonas aeruginosa)	IC50 (Staphylococcus aureus [10])	IC50 (Staphylococcus aureus [11])	Activity (Staphylococcus aureus [12])	Activity (Staphylococcus aureus [13])	Activity (Staphylococcus aureus [14])
CCCCCc1ccc(C(=O)Nc2ccc3c(c2)nc(N)n3-c2ccc(CCCCC)cc2)cc1.Cl	64 µg/mL	> 64 µg/mL	> 64 µg/mL	> 64 µg/mL	> 64 µg/mL	> 64 µg/mL	> 64 µg/mL	64 µg/mL	64 µg/mL	> 64 µg/mL	> 64 µg/mL	> 20 µM	> 20 µM	inactive		
CCCCCc1ccc(C(=O)Nc2ccc3c(c2)nc(N)n3CCc2ccc(OC)cc2)cc1.Cl	16 µg/mL	16 µg/mL	16 µg/mL	8 µg/mL	16 µg/mL	16 µg/mL	8 µg/mL	8 µg/mL	16 µg/mL	> 64 µg/mL	> 64 µg/mL	6.2 µM	10.4 µM	inactive	Toxic	Toxic
CCCCCc1ccc(C(=O)Nc2ccc3c(c2)nc(N)n3CCc2ccccn2)cc1.Cl	32 µg/mL	32 µg/mL	32 µg/mL	64 µg/mL	32 µg/mL	32 µg/mL	32 µg/mL	64 µg/mL	32 µg/mL	> 64 µg/mL	> 64 µg/mL	7.2 µM	8.9 µM	inactive	Non-toxic	Non-toxic
CCCCCc1ccc(C(=O)Nc2ccc3[nH]c(N)nc3c2)cc1	16 µg/mL (≈ 49.6 µM)	8 µg/mL (≈ 24.8 µM)	16 µg/mL (≈ 49.6 µM)	16 µg/mL (≈ 49.6 µM)	8 µg/mL (≈ 24.8 µM)	8 µg/mL (≈ 24.8 µM)	8 µg/mL (≈ 24.8 µM)	16 µg/mL (≈ 49.6 µM)	8 µg/mL (≈ 24.8 µM)	16 µg/mL (≈ 49.6 µM)	16 µg/mL (≈ 49.6 µM)	13.9 µM	> 20 µM		Toxic	
CCCCCc1ccc(C(=O)Nc2ccc3c(c2)nc(N)n3CCc2ccc3ccccc3c2)cc1.Cl	64 µg/mL	32 µg/mL	32 µg/mL	32 µg/mL	32 µg/mL	32 µg/mL	32 µg/mL	32 µg/mL	64 µg/mL	> 64 µg/mL	> 64 µg/mL	5.7 µM	14.3 µM	inactive	Toxic	Toxic
CCCCCc1ccc(C(=O)Nc2ccc3c(c2)nc(N)n3CCCCc2c[nH]c3ccccc23)cc1.Cl	64 µg/mL	32 µg/mL	32 µg/mL	32 µg/mL	32 µg/mL	64 µg/mL	32 µg/mL	32 µg/mL	64 µg/mL	> 64 µg/mL	> 64 µg/mL	5.7 µM	7.9 µM	inactive	Toxic	Toxic
CCCCCc1ccc(C(=O)Nc2ccc3c(c2)nc(N)n3CCc2cccc(OC)c2)cc1.Cl	16 µg/mL	32 µg/mL	16 µg/mL	16 µg/mL	16 µg/mL	16 µg/mL	16 µg/mL	16 µg/mL	16 µg/mL	> 64 µg/mL	> 64 µg/mL	6.1 µM	9.3 µM	inactive	Toxic	Non-toxic
CCCCCc1ccc(C(=O)Nc2ccc3c(c2)nc(N)n3CCc2ccccc2OC)cc1.Cl	16 µg/mL	16 µg/mL	16 µg/mL	16 µg/mL	16 µg/mL	8 µg/mL	16 µg/mL	16 µg/mL	16 µg/mL	> 64 µg/mL	> 64 µg/mL	5.7 µM	7.3 µM	inactive	Non-toxic	Toxic
CCCCCc1ccc(C(=O)Nc2ccc3c(c2)nc(N)n3C2CCCC2)cc1.Cl	16 µg/mL	16 µg/mL	8 µg/mL	8 µg/mL	16 µg/mL	16 µg/mL	8 µg/mL	8 µg/mL	8 µg/mL	> 64 µg/mL	> 64 µg/mL	3.6 µM	4.3 µM	inactive	Non-toxic	Non-toxic
CCCCCc1ccc(C(=O)Nc2ccc3c(c2)nc(N)n3Cc2ccc(OC)cc2)cc1.Cl	> 64 µg/mL	16 µg/mL	16 µg/mL	16 µg/mL	16 µg/mL	16 µg/mL	16 µg/mL	16 µg/mL	> 64 µg/mL	> 64 µg/mL	> 64 µg/mL	5.7 µM	11.5 µM	inactive	Non-toxic	Toxic
CCCCCCCCn1c(N)nc2cc(NC(=O)c3ccc(CCCCC)cc3)ccc21.Cl	64 µg/mL	64 µg/mL	64 µg/mL	64 µg/mL	64 µg/mL	32 µg/mL	> 64 µg/mL	64 µg/mL	64 µg/mL	> 64 µg/mL	> 64 µg/mL	9.3 µM	6.8 µM	inactive	Non-toxic	Non-toxic
CCCCCc1ccc(C(=O)Nc2ccc3c(c2)nc(N)n3CCc2nc3ccccc3[nH]2)cc1.Cl	> 64 µg/mL	> 64 µg/mL	64 µg/mL	> 64 µg/mL	> 64 µg/mL	> 64 µg/mL	64 µg/mL	> 64 µg/mL	> 64 µg/mL	> 64 µg/mL	> 64 µg/mL	7 µM	> 20 µM	inactive	Non-toxic	
CCCCCc1ccc(C(=O)Nc2ccc3c(c2)nc(N)n3CCc2cccc3ccccc23)cc1.Cl	> 64 µg/mL	> 64 µg/mL	64 µg/mL	> 64 µg/mL	> 64 µg/mL	> 64 µg/mL	> 64 µg/mL	> 64 µg/mL	> 64 µg/mL	> 64 µg/mL	> 64 µg/mL	> 20 µM	> 20 µM	inactive		
CCCCCc1ccc(C(=O)Nc2ccc3c(c2)nc(N)n3C)cc1.Cl	16 µg/mL	32 µg/mL	32 µg/mL	16 µg/mL	64 µg/mL	64 µg/mL	32 µg/mL	16 µg/mL	8 µg/mL	64 µg/mL	64 µg/mL	> 20 µM	> 20 µM	inactive		
CCCCCCCCCCCCn1c(N)nc2cc(NC(=O)c3ccc(CCCCC)cc3)ccc21.Cl	> 64 µg/mL	> 64 µg/mL	> 64 µg/mL	> 64 µg/mL	> 64 µg/mL	> 64 µg/mL	> 64 µg/mL	> 64 µg/mL	> 64 µg/mL	> 64 µg/mL	> 64 µg/mL	> 20 µM	> 20 µM	inactive		
